Results published in patent US20230279025A1, “KRAS G12D INHIBITORS” (Mirati Therapeutics, Inc., priority 2020, published 2023).

Target: KRas G12D (Homo sapiens (Human), UniProt P01116, G12D)
Test: KRas G12D Binding Assay (TR-FRET displacement of Cy5 labelled tracer)
Settings: GDP-loaded KRAS G12D (amino acids 1:169), 60 minute incubation at 22° C.
Procedure: After a 60 minute incubation at 22° C., the reaction was measured using a PerkinElmer EnVision multimode plate reader via TR-FRET dual wavelength detection, and the percent of control (POC) calculated using a ratiometric emission factor. […] The POC values were fit to a 4-parameter logistic curve and the IC50 value was determined as the concentration where the curve crosses 50 POC.
ND stands for “not determined.”

Chain of KRas G12D (P01116 other isoform, or with tags, fused parts or gaps G12D): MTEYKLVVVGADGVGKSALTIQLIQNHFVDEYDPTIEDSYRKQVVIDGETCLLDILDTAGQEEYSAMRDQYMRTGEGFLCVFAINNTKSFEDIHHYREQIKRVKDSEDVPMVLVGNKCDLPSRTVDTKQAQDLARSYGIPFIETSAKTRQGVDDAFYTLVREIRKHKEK

| Structure (SMILES) | IC50 [nM] |
| --- | --- |
| Oc1cc(-c2ncc3c(N4C[C@H]5CC[C@@H](C4)N5)nc(OC[C@@]45CCCN4C[C@H](F)C5)nc3c2F)c2c(F)cccc2c1 [Example 282, 4-(4-((1R,5S)-3,8-diazabicyclo[3.2.1]octan-3-yl)-8-fluoro-2-(((2R,7aS)-2-fluorohexahydro-1H-pyrrolizin-7a-yl)methoxy)pyrido[4,3-d]pyrimidin-7-yl)-5-fluoronaphthalen-2-ol] | 0.7 |
| Fc1c(-c2cccc3c2C(C2CC2)CC3)ncc2c(N3CC4CCC(C3)N4)nc(OC[C@@]34CCCN3C[C@H](F)C4)nc12 (stereo partly drawn) [Example 437, 4-(3,8-diazabicyclo[3.2.1]octan-3-yl)-7-(3-cyclopropyl-2,3-dihydro-1H-inden-4-yl)-8-fluoro-2-(((2R,7aS)-2-fluorotetrahydro-1H-pyrrolizin-7a(5H)-yl)methoxy)pyrido[4,3-d]pyrimidine] | 234 |
| C#Cc1cccc2cc(O)cc(-c3ncc4c(N5CC6CCC(C5)N6)nc(OC[C@@]56CCCN5C[C@H](OC)C6)nc4c3F)c12 (stereo in doubt) [Example 410, 4-(4-((1R,5S)-3,8-diazabicyclo[3.2.1]octan-3-yl)-8-fluoro-2-((2-methoxytetrahydro-1H-pyrrolizin-7a(5H)-yl)methoxy)pyrido[4,3-d]pyrimidin-7-yl)-5-ethynylnaphthalen-2-ol] | 1 |
| Cc1cc2[nH]ccc2c(-c2ncc3c(N4C[C@H]5CC[C@@H](C4)N5)nc(OCC45CCCN4CCC5)nc3c2F)c1C [Example 250, 4-((1R,5S)-3,8-diazabicyclo[3.2.1]octan-3-yl)-7-(5,6-dimethyl-1H-indol-4-yl)-8-fluoro-2-((hexahydro-1H-pyrrolizin-7a-yl)methoxy)pyrido[4,3-d]pyrimidine] | 28.2 |
| N=C(N)NCCOc1nc(N2CC3CCC(C2)N3)c2cnc(-c3cccc4cccc(Cl)c34)c(F)c2n1 [Example 176, 1-[2-[7-(8-chloro-1-naphthyl)-4-(3,8-diazabicyclo[3.2.1]octan-3-yl)-8-fluoro-pyrido[4,3-d]pyrimidin-2-yl]oxyethyl]guanidine] | 235 |
| COC1CN2CCCC2(COc2nc(N3CC4CCC(C3)N4)c3cnc(-c4cc(O)cc5cccc(F)c45)c(F)c3n2)C1 (mixture of isomers) [Example 388, 4-(4-((1R,5S)-3,8-diazabicyclo[3.2.1]octan-3-yl)-8-fluoro-2-((2-methoxytetrahydro-1H-pyrrolizin-7a(5H)-yl)methoxy)pyrido[4,3-d]pyrimidin-7-yl)-5-fluoronaphthalen-2-ol] | 0.6 |
| Fc1c(-c2ccccc2C(F)F)ncc2c(N3C[C@H]4CC[C@@H](C3)N4)nc(OCC34CCCN3CCC4)nc12 [Example 293, 4-((1R,5S)-3,8-diazabicyclo[3.2.1]octan-3-yl)-7-(2-(difluoromethyl)phenyl)-8-fluoro-2-((hexahydro-1H-pyrrolizin-7a-yl)methoxy)pyrido[4,3-d]pyrimidine] | 692 |
| Oc1ccc(CC(F)(F)F)c(-c2ncc3c(N4C[C@H]5CC[C@@H](C4)N5)nc(OC[C@@]45CCCN4C[C@H](F)C5)nc3c2F)c1 [Example 424, 3-(4-((1R,5S)-3,8-diazabicyclo[3.2.1]octan-3-yl)-8-fluoro-2-(((2R,7aS)-2-fluorohexahydro-1H-pyrrolizin-7a-yl)methoxy)pyrido[4,3-d]pyrimidin-7-yl)-4-(2,2,2-trifluoroethyl)phenol] | 5 |
| CC(C)c1ncccc1-c1ncc2c(N3C[C@H]4CC[C@@H](C3)N4)nc(OC[C@@]34CCCN3C[C@H](F)C4)nc2c1F [Example 421, 4-((1R,5S)-3,8-diazabicyclo[3.2.1]octan-3-yl)-8-fluoro-2-(((2R,7aS)-2-fluorohexahydro-1H-pyrrolizin-7a-yl)methoxy)-7-(2-isopropylpyridin-3-yl)pyrido[4,3-d]pyrimidine] | 7750 |
| Cn1cnnc1CCOc1nc(N2C[C@H]3CC[C@@H](C2)N3)c2cnc(-c3cccc4cccc(Cl)c34)c(F)c2n1 [Example 154, 4-((1R,5S)-3,8-diazabicyclo[3.2.1]octan-3-yl)-7-(8-chloronaphthalen-1-yl)-8-fluoro-2-(2-(4-methyl-4H-1,2,4-triazol-3-yl)ethoxy)pyrido[4,3-d]pyrimidine] | 6530 |
| CC(C)(O)c1ccccc1-c1ncc2c(N3CC4CCC(C3)N4)nc(OC[C@@]34CCCN3C[C@H](F)C4)nc2c1F (stereo in doubt) [Example 402, 2-(2-(4-((1R,5S)-3,8-diazabicyclo[3.2.1]octan-3-yl)-8-fluoro-2-((2-fluorotetrahydro-1H-pyrrolizin-7a(5H)-yl)methoxy)pyrido[4,3-d]pyrimidin-7-yl)phenyl)propan-2-ol] | 8020 |
| N#Cc1cccc2cccc(-c3ncc4c(N5C[C@H]6CC[C@@H](C5)N6)nc(OCC56CCCN5CCC6)nc4c3F)c12 [Example 198, 8-(4-((1R,5S)-3,8-diazabicyclo[3.2.1]octan-3-yl)-8-fluoro-2-((tetrahydro-1H-pyrrolizin-7a(5H)-yl)methoxy)pyrido[4,3-d]pyrimidin-7-yl)-1-naphthonitrile] | 20.3 |
| CNC(=O)OC[C@H]1CC[C@@]2(COc3nc(N4CC5CCC(C4)N5)c4cnc(-c5cccc6cccc(Cl)c56)c(F)c4n3)CCCN12 [Example 408, (7a-(((4-(3,8-diazabicyclo[3.2.1]octan-3-yl)-7-(8-chloronaphthalen-1-yl)-8-fluoropyrido[4,3-d]pyrimidin-2-yl)oxy)methyl)hexahydro-1H-pyrrolizin-3-yl)methyl methylcarbamate] | 3.1 |
| Cc1cc2sc(N)nc2c(-c2ncc3c(N4C[C@H]5CC[C@@H](C4)N5)nc(OC[C@@]45CCCN4C[C@H](F)C5)nc3c2F)c1C [Example 457, 4-(4-((1R,5S)-3,8-diazabicyclo[3.2.1]octan-3-yl)-8-fluoro-2-(((2R,7aS)-2-fluorohexahydro-1H-pyrrolizin-7a-yl)methoxy)pyrido[4,3-d]pyrimidin-7-yl)-5,6-dimethylbenzo[d]thiazol-2-amine] | 475 |
| CCC#Cc1cccc2cccc(-c3ncc4c(N5C[C@H]6CC[C@@H](C5)N6)nc(OCC56CCCN5CCC6)nc4c3F)c12 [Example 242, 4-((1R,5S)-3,8-diazabicyclo[3.2.1]octan-3-yl)-7-(8-(but-1-yn-1-yl)naphthalen-1-yl)-8-fluoro-2-((tetrahydro-1H-pyrrolizin-7a(5H)-yl)methoxy)pyrido[4,3-d]pyrimidine] | 82.2 |
| Oc1cc(-c2ncc3c(N4C[C@H]5CC[C@@H](C4)N5)ncnc3c2F)c2ccccc2c1 [Example 181, 4-(4-((1R,5S)-3,8-diazabicyclo[3.2.1]octan-3-yl)-8-fluoropyrido[4,3-d]pyrimidin-7-yl)naphthalen-2-ol] | 572 |
| O[C@@H]1C[C@@H]2CN(c3nc(OCCn4ccnc4CF)nc4c(F)c(-c5cccc6cccc(Cl)c56)ncc34)C[C@H]1N2 [Example 168, (1R,5R,6R)-3-(7-(8-chloronaphthalen-1-yl)-8-fluoro-2-(2-(2-(fluoromethyl)-1H-imidazol-1-yl)ethoxy)pyrido[4,3-d]pyrimidin-4-yl)-3,8-diazabicyclo[3.2.1]octan-6-ol] | 583 |
| OCCc1ccccc1-c1ncc2c(N3C[C@H]4CC[C@@H](C3)N4)nc(OCC34CCCN3CCC4)nc2c1F [Example 315, 2-(2-(4-((1R,5S)-3,8-diazabicyclo[3.2.1]octan-3-yl)-8-fluoro-2-((hexahydro-1H-pyrrolizin-7a-yl)methoxy)pyrido[4,3-d]pyrimidin-7-yl)phenyl)ethanol] | 2540 |
| Cc1ccccc1-c1ncc2c(N3C[C@H]4CC[C@@H](C3)N4)nc(OCC34CCCN3CCC4)nc2c1F [Example 272, 4-((1R,5S)-3,8-diazabicyclo[3.2.1]octan-3-yl)-8-fluoro-2-((hexahydro-1H-pyrrolizin-7a-yl)methoxy)-7-(o-tolyl)pyrido[4,3-d]pyrimidine] | 1180 |
| Fc1c(-c2cccc3ccccc23)ncc2c(N3C[C@H]4CC[C@@H](C3)N4)nc(OCC34CCCN3CCC4)nc12 [Example 186, 4-((1R,5S)-3,8-diazabicyclo[3.2.1]octan-3-yl)-8-fluoro-7-(naphthalen-1-yl)-2-((tetrahydro-1H-pyrrolizin-7a(5H)-yl)methoxy)pyrido[4,3-d]pyrimidine] | 29.2 |
| [2H]C1([2H])CC[C@@]2(C([2H])([2H])Oc3nc(N4C[C@H]5CC[C@@H](C4)N5)c4cnc(-c5cc(O)cc6cccc(CC)c56)c(F)c4n3)C[C@@H](F)CN12 [Example 480, 4-(4-((1R,5S)-3,8-diazabicyclo[3.2.1]octan-3-yl)-8-fluoro-2-(((2R,7aS)-2-fluorotetrahydro-1H-pyrrolizin-7a(5H)-yl-5,5-d2)methoxy-d2)pyrido[4,3-d]pyrimidin-7-yl)-5-ethylnaphthalen-2-ol] | < 0.002 |
| C=Cc1cccc2cccc(-c3ncc4c(N5C[C@H]6CC[C@@H](C5)N6)nc(OC[C@@H]5CCCN5C)nc4c3F)c12 [Example 201, 4-((1R,5S)-3,8-diazabicyclo[3.2.1]octan-3-yl)-8-fluoro-2-(((S)-1-methylpyrrolidin-2-yl)methoxy)-7-(8-vinyInaphthalen-1-yl)pyrido[4,3-d]pyrimidine] | 70.2 |
| N=C(N)NCCCOc1nc(N2CC3CCC(C2)N3)c2cnc(-c3cccc4cccc(Cl)c34)c(F)c2n1 [Example 177, 1-[3-[7-(8-chloro-1-naphthyl)-4-(3,8-diazabicyclo[3.2.1]octan-3-yl)-8-fluoro-pyrido[4,3-d]pyrimidin-2-yl]oxypropyl]guanidine] | 187 |
| CN1C[C@H](NC(=O)c2cccc(C=O)c2)C[C@H]1COc1nc(N2C[C@H]3CC[C@@H](C2)N3)c2cnc(-c3cccc4cccc(Cl)c34)c(F)c2n1 [Example 354, N-((3R,5S)-5-(((4-((1R,5S)-3,8-diazabicyclo[3.2.1]octan-3-yl)-7-(8-chloronaphthalen-1-yl)-8-fluoropyrido[4,3-d]pyrimidin-2-yl)oxy)methyl)-1-methylpyrrolidin-3-yl)-3-formylbenzamide] | 368 |
